Measurements published in ChEMBL document CHEMBL5579801, “Novel orexin receptor agonists based on arene- or pyridine-fused 1,3-dihydro-2H-imidazole-2-imines” (Bioorg Med Chem Lett, 2024).

Assays:
[1] = Cmax in mouse plasma at 5 mg/kg,iv administration; type: ADME, organism-based
[2] = Cmax in mouse brain at 5 mg/kg,iv administration; type: ADME, organism-based
[3] = Tmax in mouse plasma at 5 mg/kg,iv administration; type: ADME, organism-based
[4] = Half life in mouse plasma at 5 mg/kg,iv administration; type: ADME, organism-based
[5] = Half life in mouse brain at 5 mg/kg,iv administration; type: ADME, organism-based
HEK293 = assay: Cytotoxicity against human HEK293 cells upto 100 uM incubated for 3 days; type: toxicity, cell-based; conditions: hek293, 72 h, time 3 day
[6] = AUClast in mouse brain at 5 mg/kg,iv administration; type: ADME, organism-based; conditions: in vivo
[7] = Tmax in mouse brain at 5 mg/kg,iv administration; type: ADME, organism-based
[8] = AUClast in mouse plasma at 5 mg/kg,iv administration; type: ADME, organism-based
Orexin receptor type 2 = target: T1, Orexin receptor type 2 (Homo sapiens, UniProt O43614); assay: Agonist activity at human OX2R expressed in human HEK293 cells co-transfected with human Galphaq assessed as accumulation of inositol phosphate by scintillation counter analysis
T1 sequence (O43614 whole entry): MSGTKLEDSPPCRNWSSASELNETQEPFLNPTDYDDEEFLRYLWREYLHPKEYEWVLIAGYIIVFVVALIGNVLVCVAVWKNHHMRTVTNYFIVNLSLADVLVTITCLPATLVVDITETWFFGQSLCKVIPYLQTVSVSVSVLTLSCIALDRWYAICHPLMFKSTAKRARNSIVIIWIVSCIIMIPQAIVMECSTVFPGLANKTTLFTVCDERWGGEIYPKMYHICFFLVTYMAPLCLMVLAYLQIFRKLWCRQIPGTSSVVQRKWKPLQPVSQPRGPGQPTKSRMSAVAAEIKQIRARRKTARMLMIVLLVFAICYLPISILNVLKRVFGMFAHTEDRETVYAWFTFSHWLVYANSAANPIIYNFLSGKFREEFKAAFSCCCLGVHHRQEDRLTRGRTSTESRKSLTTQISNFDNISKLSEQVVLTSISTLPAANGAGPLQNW

[9] = Ratio of Cmax in mouse brain to plasma at 5 mg/kg,iv administration; type: ADME, organism-based
[10] = Ratio of AUC in mouse brain to plasma at 5 mg/kg,iv administration; type: ADME, organism-based; conditions: read-out: Ratio AUC

| SMILES | EC50 (Orexin receptor type 2) [µM] | further results |
| --- | --- | --- |
| Cc1ccc(C[C@@H](C(=O)N2CC(C#N)C2)n2c(=N)n(C(C)c3ccc(C)cc3)c3cccnc32)cc1 (stereo not given in full) | – | Cmax [1]: 651 ng/mL; Cmax [2]: 218 ng/g; Tmax [3]: 10 min; half-life [4]: 40 min; half-life [5]: 47 min; Activity (HEK293): Non-Toxic; AUClast [6]: 12554 ng·min/g; Tmax [7]: 10 min; AUC(0-t) [8]: 518 ng·h/mL |
| Cc1ccc(C[C@@H](CNC(=O)c2ccco2)n2c(=N)n(Cc3ccc(C)cc3)c3ccccc32)cc1 | > 10 | – |
| COCCCOC[C@H](Cc1ccc(C)cc1)n1c(=N)n(Cc2ccc(C)cc2)c2ccccc21 | 3.63 | – |
| Cc1ccc(C[C@@H](CNC(=O)CC(F)(F)F)n2c(=N)n(Cc3ccc(C)cc3)c3ccccc32)cc1 | 6.46 | – |
| Cc1ccc(C[C@@H](CNC(=O)c2cccc(C)n2)n2c(=N)n(Cc3ccc(C)cc3)c3ccccc32)cc1 | > 10 | – |
| Cc1ccc(C[C@@H](CSC(C)C)n2c(=N)n(Cc3ccc(C)cc3)c3ccccc32)cc1 | 5.37 | – |
| Cc1ccc(C[C@@H](CNC(=O)c2ncccc2C)n2c(=N)n(Cc3ccc(C)cc3)c3ccccc32)cc1 | > 10 | – |
| Cc1ccc(C[C@@H](CO)n2c(=N)n(Cc3ccc(C)cc3)c3ccc(C(F)(F)F)cc32)cc1 | > 10 | – |
| Cc1ccc(C[C@@H](CO)n2c(=N)n(Cc3ccc(C)cc3)c3cc(Cl)ccc32)cc1 | > 10 | – |
| CSC[C@H](Cc1ccc(C)cc1)n1c(=N)n(Cc2ccc(C)cc2)c2ccccc21 | 2.34 | – |
| Cc1ccc(C[C@@H](CO)n2c(=N)n(Cc3ccc(C)cc3)c3ccc(C)cc32)cc1 | > 10 | – |
| Cc1ccc(C[C@@H](C[S+](C)[O-])n2c(=N)n(Cc3ccc(C)cc3)c3ccccc32)cc1 (stereo not given in full) | 7.08 | – |
| CCSC[C@H](Cc1ccc(C)cc1)n1c(=N)n(Cc2ccc(C)cc2)c2ccccc21 | 3.98 | – |
| Cc1ccc(C[C@@H](CS(C)(=O)=O)n2c(=N)n(Cc3ccc(C)cc3)c3ccccc32)cc1 | 4.47 | – |
| Cc1ccc(C[C@@H](COCCN(C)C)n2c(=N)n(Cc3ccc(C)cc3)c3ccccc32)cc1 | 3.98 | – |
| Cc1ccc(C[C@@H](CNS(=O)(=O)C(F)F)n2c(=N)n(Cc3ccc(C)cc3)c3ccccc32)cc1 | 6.46 | – |
| COC[C@H](Cc1ccc(C)cc1)n1c(=N)n(C(c2ccc(C)cc2)C(F)(F)F)c2ccccc21 (mixture of isomers) | 1.41 | – |
| Cc1ccc(C[C@@H](CNC(=O)CO)n2c(=N)n(C(C)c3ccc(C)cc3)c3ccccc32)cc1 (mixture of isomers) | 0.661 | – |
| COC[C@H](Cc1ccc(C)cc1)n1c(=N)n(C(c2ccc(C)cc2)C2CCC2)c2ccccc21 (mixture of isomers) | > 10 | – |
| Cc1ccc(C[C@@H](C(=O)N2CC(C#N)C2)n2c(=N)n(C(C)c3ccc(C)cc3)c3ccccc32)cc1 (mixture of isomers) | 0.661 | Cmax [1]: 225 ng/mL; Cmax [2]: 53.2 ng/g; Tmax [3]: 10 min; Kp [9]: 0.24; half-life [4]: 185 min; half-life [5]: 234 min; Activity (HEK293): Non-Toxic; Kp [10]: 0.48; AUClast [6]: 8586 ng·min/g; Tmax [7]: 10 min; AUC(0-t) [8]: 295 ng·h/mL |
| Cc1ccc(C[C@@H](CNC(=O)CO)n2c(=N)n(C(c3ccc(C)cc3)C(C)C)c3ccccc32)cc1 (mixture of isomers) | 1.95 | – |
| Cc1ccc(C[C@@H](C(=O)N2CC3(CNC3)C2)n2c(=N)n(C(C)c3ccc(C)cc3)c3ccccc32)cc1 (mixture of isomers) | > 10 | – |
| CCC(=O)NCC(Cc1ccc(C)cc1)n1c(=N)n(Cc2ccc(C)cc2)c2ccccc21 (racemic) | 8.13 | – |
| Cc1ccc(CC(CNC(=O)C2CC2)n2c(=N)n(Cc3ccc(C)cc3)c3ccccc32)cc1 (racemic) | 5.25 | – |
| Cc1ccc(CC(CNC=O)n2c(=N)n(Cc3ccc(C)cc3)c3ccccc32)cc1 (racemic) | 2.45 | – |

| SMILES | EC50 (Orexin receptor type 2) [µM] | further results |
| --- | --- | --- |
| Cc1ccc(CC(CNC(=O)Cc2ccccc2)n2c(=N)n(Cc3ccc(C)cc3)c3ccccc32)cc1 (racemic) | > 10 | – |
| Cc1ccc(CC(CNC(=O)CN(C)C)n2c(=N)n(Cc3ccc(C)cc3)c3ccccc32)cc1 (racemic) | 3.31 | – |
| Cc1ccc(CC(CNC(=O)c2ccccc2)n2c(=N)n(Cc3ccc(C)cc3)c3ccccc32)cc1 (racemic) | > 10 | – |
| Cc1ccc(CC(CNC(=O)N(C)C)n2c(=N)n(Cc3ccc(C)cc3)c3ccccc32)cc1 (racemic) | 4.17 | – |
| Cc1ccc(CC(CNC(=O)Cc2cccnc2)n2c(=N)n(Cc3ccc(C)cc3)c3ccccc32)cc1 (racemic) | 4.68 | – |
| Cc1ccc(CC(CNS(=O)(=O)C(F)(F)F)n2c(=N)n(Cc3ccc(C)cc3)c3ccccc32)cc1 (racemic) | > 10 | – |
| Cc1ccc(CC(CNC(=O)CCCO)n2c(=N)n(Cc3ccc(C)cc3)c3ccccc32)cc1 (racemic) | > 10 | – |
| Cc1ccc(CC(CNC(=O)C(F)(F)F)n2c(=N)n(Cc3ccc(C)cc3)c3ccccc32)cc1 (racemic) | 6.61 | – |
| COC(=O)NCC(Cc1ccc(C)cc1)n1c(=N)n(Cc2ccc(C)cc2)c2ccccc21 (racemic) | 1.86 | – |
| Cc1ccc(CC(CNC(=O)Cc2ncccn2)n2c(=N)n(Cc3ccc(C)cc3)c3ccccc32)cc1 (racemic) | > 10 | – |
| Cc1ccc(CC(CNC(=O)CN)n2c(=N)n(Cc3ccc(C)cc3)c3ccccc32)cc1 (racemic) | > 10 | – |
| CCOC(=O)NCC(Cc1ccc(C)cc1)n1c(=N)n(Cc2ccc(C)cc2)c2ccccc21 (racemic) | 2.69 | – |
| Cc1ccc(CC(CNC(=O)Cc2ccncc2)n2c(=N)n(Cc3ccc(C)cc3)c3ccccc32)cc1 (racemic) | > 10 | – |
| COC[C@H](Cc1ccc(C)cc1)n1c(=N)n(C(c2ccc(C)cc2)C2CC2)c2ccccc21 (stereo in doubt; 61b) | 0.603 | Cmax [1]: 841 ng/mL; Cmax [2]: 143 ng/g; Tmax [3]: 10 min; Kp [9]: 0.17; half-life [4]: 74 min; half-life [5]: 134 min; Activity (HEK293): Non-Toxic; Kp [10]: 0.66; AUClast [6]: 38969 ng·min/g; Tmax [7]: 30 min; AUC(0-t) [8]: 986 ng·h/mL |
| COC[C@H](Cc1ccc(C)cc1)n1c(=N)n(C(c2ccc(C)cc2)C2CC2)c2ccccc21 (stereo in doubt; 61c) | 1.95 | – |
| COCOC[C@H](Cc1ccc(C)cc1)n1c(=N)n(C(C)c2ccc(C)cc2)c2cccnc21 (stereo in doubt; 62b) | 5.75 | – |
| COCOC[C@H](Cc1ccc(C)cc1)n1c(=N)n(C(C)c2ccc(C)cc2)c2cccnc21 (stereo in doubt; 62c) | 0.933 | Cmax [1]: 741 ng/mL; Cmax [2]: 2460 ng/g; Tmax [3]: 10 min; Kp [9]: 3.32; half-life [4]: 48 min; half-life [5]: 34 min; Activity (HEK293): Non-Toxic; Kp [10]: 2.49; AUClast [6]: 100501 ng·min/g; Tmax [7]: 10 min; AUC(0-t) [8]: 673 ng·h/mL |
| COCCOC[C@H](Cc1ccc(C)cc1)n1c(=N)n(C(C)c2ccc(C)cc2)c2cccnc21 (stereo in doubt; 63b) | 4.68 | – |
| COCCOC[C@H](Cc1ccc(C)cc1)n1c(=N)n(C(C)c2ccc(C)cc2)c2cccnc21 (stereo in doubt; 63c) | 0.339 | – |
| Cc1ccc(C[C@@H](CNC(=O)CO)n2c(=N)n(C(C)c3ccc(C)cc3)c3ccccc32)cc1 (stereo in doubt; 65b) | 1.51 | – |
| Cc1ccc(C[C@@H](CNC(=O)CO)n2c(=N)n(C(C)c3ccc(C)cc3)c3cccnc32)cc1 (stereo in doubt; 68b) | > 10 | – |
| Cc1ccc(C[C@@H](CNC(=O)CO)n2c(=N)n(C(C)c3ccc(C)cc3)c3cccnc32)cc1 (stereo in doubt; 68c) | 1.32 | – |
| Cc1ccc(C[C@@H](COCCC#N)n2c(=N)n(C(C)c3ccc(C)cc3)c3cccnc32)cc1 (stereo in doubt; 69b) | 5.62 | – |
| Cc1ccc(C[C@@H](COCCC#N)n2c(=N)n(C(C)c3ccc(C)cc3)c3cccnc32)cc1 (stereo in doubt; 69c) | 0.372 | – |
